# Counter-ions that a name gives are not always drawn. Like-named read-outs stand apart in the source and are kept apart here.
# Legend:
# Test in all cases: AK assay 384-well format, Prestwick library screening
# E. faecium = format: cell-based, Enterococcus faecium; conditions: Enterococcus faecium, 3 h, 50 μM final drug concentration
# [1] = tested on: S. aureus strain USA300-0114; format: cell-based, Staphylococcus aureus; conditions: Staphylococcus aureus, USA300, 3 h, 50 μM final drug concentration
# K. pneumoniae = format: cell-based, Klebsiella pneumoniae; conditions: Klebsiella pneumoniae, 3 h, 50 μM final drug concentration
# [2] = tested on: A. baumannii strain 98-37-09; format: cell-based, Acinetobacter baumannii; conditions: Acinetobacter baumannii, 983709, 3 h, 50 μM final drug concentration
# P. aeruginosa = format: cell-based, Pseudomonas aeruginosa; conditions: Pseudomonas aeruginosa, 3 h, 50 μM final drug concentration
# E. cloacae = format: cell-based, Enterobacter cloacae; conditions: Enterobacter cloacae, 3 h, 50 μM final drug concentration
# E. coli = format: cell-based, Escherichia coli; conditions: Escherichia coli, 3 h, 50 μM final drug concentration
# [3] = planktonic E. faecium, 384-well, cutoff for positive-scoring molecules 3-fold increase, read-out: AK-based Prestwick Library Screening Results: E. faecium (increase in extracellular AK activity)
# [4] = planktonic S. aureus, 384-well, cutoff for positive-scoring molecules 3-fold increase, read-out: AK-based Prestwick Library Screening Results: S. aureus (increase in extracellular AK activity)
# [5] = planktonic K. pneumoniae, 384-well, cutoff for positive-scoring molecules 3-fold increase, read-out: AK-based Prestwick Library Screening Results: K. pneumoniae (increase in extracellular AK activity)
# [6] = planktonic A. baumannii, 384-well, cutoff for positive-scoring molecules 3-fold increase, read-out: AK-based Prestwick Library Screening Results: A. baumannii (increase in extracellular AK activity)
# [7] = planktonic P. aeruginosa, 384-well, cutoff for positive-scoring molecules 3-fold increase, read-out: AK-based Prestwick Library Screening Results: P. aeruginosa (increase in extracellular AK activity)
# [8] = planktonic E. cloacae, 384-well, cutoff for positive-scoring molecules 3-fold increase, read-out: AK-based Prestwick Library Screening Results: E. cloacae (increase in extracellular AK activity)
# [9] = planktonic E. coli, 384-well, cutoff for positive-scoring molecules 3-fold increase, read-out: AK-based Prestwick Library Screening Results: E. coli (increase in extracellular AK activity)
# [10] = planktonic, cutoff for positive 3-fold increase, read-out: AK-based Prestwick Library Screening Results, E. faecium (fold increase in extracellular AK activity)
# [11] = planktonic, cutoff for positive 3-fold increase, read-out: AK-based Prestwick Library Screening Results, S. aureus (fold increase in extracellular AK activity)
# [12] = planktonic, cutoff for positive 3-fold increase, read-out: AK-based Prestwick Library Screening Results, K. pneumoniae (fold increase in extracellular AK activity)
# [13] = planktonic, cutoff for positive 3-fold increase, read-out: AK-based Prestwick Library Screening Results, A. baumannii (fold increase in extracellular AK activity)
# [14] = planktonic, cutoff for positive 3-fold increase, read-out: AK-based Prestwick Library Screening Results, P. aeruginosa (fold increase in extracellular AK activity)
# [15] = planktonic, cutoff for positive 3-fold increase, read-out: AK-based Prestwick Library Screening Results, E. cloacae (fold increase in extracellular AK activity)
# [16] = planktonic, cutoff for positive 3-fold increase, read-out: AK-based Prestwick Library Screening Results, E. coli (fold increase in extracellular AK activity)
# [17] = planktonic, cutoff for positive-scoring molecules 3-fold increase, read-out: AK-based Prestwick Library Screening Results, E. faecium (fold increase in extracellular AK activity)
# [18] = planktonic, cutoff for positive-scoring molecules 3-fold increase, read-out: AK-based Prestwick Library Screening Results, S. aureus (fold increase in extracellular AK activity)
# [19] = planktonic, cutoff for positive-scoring molecules 3-fold increase, read-out: AK-based Prestwick Library Screening Results, K. pneumoniae (fold increase in extracellular AK activity)
# [20] = planktonic, cutoff for positive-scoring molecules 3-fold increase, read-out: AK-based Prestwick Library Screening Results, A. baumannii (fold increase in extracellular AK activity)
# [21] = planktonic, cutoff for positive-scoring molecules 3-fold increase, read-out: AK-based Prestwick Library Screening Results, P. aeruginosa (fold increase in extracellular AK activity)
# [22] = planktonic, cutoff for positive-scoring molecules 3-fold increase, read-out: AK-based Prestwick Library Screening Results, E. cloacae (fold increase in extracellular AK activity)
# [23] = planktonic, cutoff for positive-scoring molecules 3-fold increase, read-out: AK-based Prestwick Library Screening Results, E. coli (fold increase in extracellular AK activity)
compound,measurement,setting,value
CO[C@@]1(NC(=O)CSCC#N)C(=O)N2C(C(=O)O)=C(CSc3nnnn3C)CS[C@@H]21 [Cefmetazole sodium salt],fold induction at 50 µM,"E. faecium; cutoff for positive-scoring molecules 3-fold increase, read-out: AK-based Prestwick Library Screening Results, E. faecium (fold increase in extracellular AK activity)",1.4
same,fold induction at 50 µM,"[1]; cutoff for positive-scoring molecules 3-fold increase, read-out: AK-based Prestwick Library Screening Results, S. aureus (fold increase in extracellular AK activity)",5
same,fold induction at 50 µM,"K. pneumoniae; cutoff for positive-scoring molecules 3-fold increase, read-out: AK-based Prestwick Library Screening Results, K. pneumoniae (fold increase in extracellular AK activity)",4.6
same,fold induction at 50 µM,"[2]; cutoff for positive-scoring molecules 3-fold increase, read-out: AK-based Prestwick Library Screening Results, A. baumannii (fold increase in extracellular AK activity)",1.4
same,fold induction at 50 µM,"P. aeruginosa; cutoff for positive-scoring molecules 3-fold increase, read-out: AK-based Prestwick Library Screening Results, P. aeruginosa (fold increase in extracellular AK activity)",1
same,fold induction at 50 µM,"E. cloacae; cutoff for positive-scoring molecules 3-fold increase, read-out: AK-based Prestwick Library Screening Results, E. cloacae (fold increase in extracellular AK activity)",1.6
same,fold induction at 50 µM,"E. coli; cutoff for positive-scoring molecules 3-fold increase, read-out: AK-based Prestwick Library Screening Results, E. coli (fold increase in extracellular AK activity)",20
CCN1CCN(C(=O)N[C@@H](C(=O)N[C@@H]2C(=O)N3C(C(=O)O)=C(CSc4nnnn4C)CS[C@H]23)c2ccc(O)cc2)C(=O)C1=O [Cefoperazone dihydrate],fold induction at 50 µM,E. faecium; [3],0.9
same,fold induction at 50 µM,[1]; [4],0.7
same,fold induction at 50 µM,K. pneumoniae; [5],2.1
same,fold induction at 50 µM,[2]; [6],0.7
same,fold induction at 50 µM,P. aeruginosa; [7],5.2
same,fold induction at 50 µM,E. cloacae; [8],12
same,fold induction at 50 µM,E. coli; [9],16.5
NCc1ccccc1CC(=O)N[C@@H]1C(=O)N2C(C(=O)O)=C(CSc3nnnn3CC(=O)O)CS[C@H]12 [Ceforanide],fold induction at 50 µM,E. faecium; [10],1
same,fold induction at 50 µM,[1]; [11],1.8
same,fold induction at 50 µM,K. pneumoniae; [12],3.1
same,fold induction at 50 µM,[2]; [13],1.8
same,fold induction at 50 µM,P. aeruginosa; [14],1.2
same,fold induction at 50 µM,E. cloacae; [15],1.9
same,fold induction at 50 µM,E. coli; [16],12.2
CO/N=C(\C(=O)N[C@@H]1C(=O)N2C(C(=O)O)=C(COC(C)=O)CS[C@H]12)c1csc(N)n1 [Cefotaxime sodium salt],fold induction at 50 µM,E. faecium; [3],1
same,fold induction at 50 µM,[1]; [4],2.9
same,fold induction at 50 µM,K. pneumoniae; [5],5.5
same,fold induction at 50 µM,[2]; [6],2.2
same,fold induction at 50 µM,P. aeruginosa; [7],10
same,fold induction at 50 µM,E. cloacae; [8],22
same,fold induction at 50 µM,E. coli; [9],21.9
CO[C@@]1(NC(=O)C2SC(=C(C(N)=O)C(=O)O)S2)C(=O)N2C(C(=O)O)=C(CSc3nnnn3C)CS[C@@H]21 (some centres unmarked) [Cefotetan],fold induction at 50 µM,E. faecium; [10],1.2
same,fold induction at 50 µM,[1]; [11],2.5
same,fold induction at 50 µM,K. pneumoniae; [12],8.4
same,fold induction at 50 µM,[2]; [13],2
same,fold induction at 50 µM,P. aeruginosa; [14],1.2
same,fold induction at 50 µM,E. cloacae; [15],25.3
same,fold induction at 50 µM,E. coli; [16],22.1
CN(C)CCn1nnnc1SCC1=C(C(=O)O)N2C(=O)[C@@H](NC(=O)Cc3csc(N)n3)[C@H]2SC1 [Cefotiam hydrochloride],fold induction at 50 µM,E. faecium; [3],0.9
same,fold induction at 50 µM,[1]; [4],2.3
same,fold induction at 50 µM,K. pneumoniae; [5],7.8
same,fold induction at 50 µM,[2]; [6],0.9
same,fold induction at 50 µM,P. aeruginosa; [7],0.6
same,fold induction at 50 µM,E. cloacae; [8],15.6
same,fold induction at 50 µM,E. coli; [9],23.9
CO[C@@]1(NC(=O)Cc2cccs2)C(=O)N2C(C(=O)O)=C(COC(N)=O)CS[C@@H]21 [Cefoxitin sodium salt],fold induction at 50 µM,E. faecium; [17],1
same,fold induction at 50 µM,[1]; [18],3.4
same,fold induction at 50 µM,K. pneumoniae; [19],3.2
same,fold induction at 50 µM,[2]; [20],1.3
same,fold induction at 50 µM,P. aeruginosa; [21],0.8
same,fold induction at 50 µM,E. cloacae; [22],1.2
same,fold induction at 50 µM,E. coli; [23],20.1
NC(=O)c1cc[n+](CC2=C(C(=O)O)N3C(=O)[C@@H](NC(=O)[C@@H](c4ccccc4)S(=O)(=O)[O-])[C@H]3SC2)cc1 [Cefsulodin sodium salt],fold induction at 50 µM,E. faecium; [17],0.9
same,fold induction at 50 µM,[1]; [18],1
same,fold induction at 50 µM,K. pneumoniae; [19],0.7
same,fold induction at 50 µM,[2]; [20],1.1
same,fold induction at 50 µM,P. aeruginosa; [21],8.6
same,fold induction at 50 µM,E. cloacae; [22],0.9
same,fold induction at 50 µM,E. coli; [23],0.9

# Source: patent US10004701B2, “Methods and compositions for treating infection” (UNIVERSITY OF ROCHESTER, priority 2012, dated 2018)
